From PubChem BioAssay (NCI)
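Protocol summary: plate cells (96-well), add compound at 5 concentrations, incubate 48 h, interpolate endpoints linearly. Here, GI50 denotes the concentration required for 50% inhibition of growth. At the TGI there is no net growth.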

What was measured:
Assay in all cases: NCI anticancer screen, dose series, 48 h
786-0 renal = test system: 786-0 renal
EKVX NSCLC = test system: EKVX NSCLC
HCC-2998 colon = test system: HCC-2998 colon
HOP-92 NSCLC = test system: HOP-92 NSCLC
KM12 colon = test system: KM12 colon
MALME-3M melanoma = test system: MALME-3M melanoma
OVCAR-4 ovarian = test system: OVCAR-4 ovarian
SK-MEL-2 melanoma = test system: SK-MEL-2 melanoma
SK-OV-3 ovarian = test system: SK-OV-3 ovarian
T-47D breast = test system: T-47D breast
UACC-62 melanoma = test system: UACC-62 melanoma

SMILES | TGI (786-0 renal) [µM] | TGI (EKVX NSCLC) [µM] | TGI (HCC-2998 colon) [µM] | TGI (HOP-92 NSCLC) [µM] | TGI (KM12 colon) [µM] | TGI (MALME-3M melanoma) [µM] | TGI (OVCAR-4 ovarian) [µM] | TGI (SK-MEL-2 melanoma) [µM] | TGI (SK-OV-3 ovarian) [µM] | TGI (T-47D breast) [µM] | TGI (UACC-62 melanoma) [µM] | GI50 (HCC-2998 colon) [µM]
CNC(C#N)c1ccc(OC)cc1 (stereo not given) | > 100 | > 100 | > 100 | > 100 | > 100 | > 100 | > 100 | > 100 | > 100 | > 100 | > 100 | –
COC(=O)C1=C(C)NC2=C(C(=O)c3ccccc32)C1c1cn(-c2ccccc2)nc1-c1ccccc1 (stereo not given) | > 100 | > 100 | > 100 | > 100 | > 100 | > 100 | > 100 | > 100 | > 100 | > 100 | > 100 | –
CCOC(=O)c1c(-c2ccc(OC)cc2)c(C#N)c(=S)n(C2OC(COC(C)=O)C(OC(C)=O)C(OC(C)=O)C2OC(C)=O)c1-c1ccccc1 (stereo not given) | > 100 | – | > 100 | > 100 | > 100 | > 100 | > 100 | > 100 | > 100 | > 100 | > 100 | –
CCOc1cc2c(OCc3ccccc3)cc3c4cc(OC)c(OC)cc4c[n+](C)c3c2cc1OC | 26.6 | > 100 | 21.6 | 2.08 | – | 2.18 | > 100 | 2.59 | 19.4 | > 100 | – | –
COc1ccc(N2C(=O)C(=O)N(c3ccccc3[N+](=O)[O-])C2=S)cc1 | > 100 | > 100 | > 100 | 57.4 | 71.9 | > 100 | 58.5 | 46 | 86.1 | 74.4 | 32.5 | –
COC(=O)CCC1=CCC2(SC)C(=O)Nc3cccc1c32 (stereo not given) | > 100 | > 100 | > 100 | > 100 | > 100 | > 100 | > 100 | > 100 | > 100 | > 100 | > 100 | –
NS(=O)(=O)c1ccc(N=Nc2nc3[nH]c(=O)[nH]c(=O)c3[nH]2)cc1 | > 100 | > 100 | > 100 | > 100 | > 100 | > 100 | > 100 | > 100 | > 100 | > 100 | > 100 | –
COC(=O)c1cc2c3c(ccc2[nH]1)N(C(=O)c1cc2cc(OC)c(OC)c(OC)c2[nH]1)CC3CCl (stereo not given) | > 52.6 | > 100 | > 100 | > 100 | > 100 | > 100 | > 100 | > 100 | > 100 | > 100 | > 100 | –
CCCCN(CCCC)CC(O)c1cc(-c2ccc(C(F)(F)F)cc2)nc(-c2ccc(C(F)(F)F)cc2)c1 (stereo not given) | > 100 | > 100 | 65.6 | > 100 | – | > 100 | > 100 | > 100 | > 100 | > 100 | > 100 | –
CCCCC1=NNC(=O)C1 | > 100 | > 100 | > 100 | > 100 | > 100 | > 100 | > 100 | > 100 | > 100 | > 100 | > 100 | –
CC(C)(C)NC(NC(C)(C)C)=C(/C=C(/Cl)[N+](=O)[O-])[N+](=O)[O-] | > 100 | > 100 | > 100 | > 100 | > 100 | 24.4 | > 100 | > 100 | > 100 | > 100 | > 100 | –
CC(C)(Cl)C(Br)CCC(C)(Cl)C(Br)CBr (stereo not given) | 61.9 | 84.2 | > 100 | 46 | – | 41 | 87.3 | 35.4 | > 100 | 81.3 | > 100 | –
Nc1ccc(-c2nc3cc(F)ccc3s2)cc1Cl | > 100 | > 48.2 | 0.0255 | > 78.9 | > 100 | 67.8 | > 100 | > 100 | 52.6 | > 70.1 | > 100 | –
CC(=O)Nc1ccc(N2C(=O)/C(=C\c3cccc(Oc4ccccc4)c3)S(=O)(=O)C2c2ccccc2)cc1 (stereo not given) | > 100 | > 100 | > 100 | > 100 | > 100 | > 100 | > 100 | > 100 | > 100 | > 100 | > 100 | –
CC(=O)N(C)c1ccc(Nc2cc(C)[nH]c3ccc4ncnc4c23)cc1 | 18.8 | 50.5 | 22.3 | 14.7 | 27.6 | 17.5 | 34 | 23.2 | 35.8 | 39.6 | 31.8 | –
Oc1cn(-c2ccc(Cl)cc2)nc1-c1nnc(-c2ccccc2)o1 | 12.2 | > 60.1 | 5.91 | 80.6 | 4.05 | 31.8 | > 100 | > 71.3 | > 74 | > 92.7 | > 51.1 | 0.739
CN(Cc1cnc2nc(N)nc(N)c2n1)c1ccc(C(=O)NC(CCC(=O)NCCC(P(=O)(O)O)P(=O)(O)O)C(=O)O)cc1 (stereo not given) | > 100 | > 100 | > 100 | > 100 | > 100 | > 100 | > 100 | > 100 | > 100 | > 100 | > 100 | –
COc1ccccc1/C(=N\OCCC(=O)O)c1cccs1 | > 100 | > 100 | > 100 | > 100 | > 100 | > 100 | > 100 | > 100 | > 100 | > 100 | > 100 | –
Cc1cc(C)n2nc3nc(N)c(C#N)c(-c4ccccc4)c3c2n1 | > 100 | > 100 | > 100 | > 100 | > 100 | > 100 | > 100 | > 100 | > 100 | > 100 | > 100 | –
